According to patent US20250197375A1, “PYRIMIDINES AND METHODS OF THEIR USE” (Kineta, Inc., priority 2021, published 2025):

Biological target: PIKfyve (Homo sapiens (Human), UniProt Q9Y2I7)
Experiment: PIKfyve EEA1 Assay (endosomal vesicle enlargement, high content imaging in U2OS cells)
Type: cell-based
Conditions: 3 hours of treatment, activity relative to maximal APY0201 activity
Procedure: PIKfyve EEA1 Assay. Genetic or pharmacological disruption of PIKfyve activity results in enlargement of endosomal vesicles. This enlargement was utilized as a surrogate readout of PIKFyve inhibition for routine triage of PIKfyve inhibitors. U2OS cells grown in 96-well assay plates were treated with compound diluted in DMEM media containing 10% fetal bovine serum. After 3 hours of treatment, cells were fixed with paraformaldehyde, permeabilized with 0.2% Triton-X in phosphate buffered saline and stained against EEA1. During the secondary antibody staining, cells were also stained with CellMask™ Deep Red and Hoechst to detect cytoplasms and nuclei respectively. Endosomal structures were visualized using a high content imager at 40× magnification. Images were analyzed using a linear classifier algorithm integrating EEA1 spot size, intensity and texture trained on images of cells treated with the potent reference compound APY0201. Compound activity was calculated by subtracting the DMSO signal and calculating percentage activity relative to maximal APY0201 activity. IC50 values were then calculated from concentration versus percent inhibition data by logistic regression.

PIKfyve, sequence (Q9Y2I7 whole entry): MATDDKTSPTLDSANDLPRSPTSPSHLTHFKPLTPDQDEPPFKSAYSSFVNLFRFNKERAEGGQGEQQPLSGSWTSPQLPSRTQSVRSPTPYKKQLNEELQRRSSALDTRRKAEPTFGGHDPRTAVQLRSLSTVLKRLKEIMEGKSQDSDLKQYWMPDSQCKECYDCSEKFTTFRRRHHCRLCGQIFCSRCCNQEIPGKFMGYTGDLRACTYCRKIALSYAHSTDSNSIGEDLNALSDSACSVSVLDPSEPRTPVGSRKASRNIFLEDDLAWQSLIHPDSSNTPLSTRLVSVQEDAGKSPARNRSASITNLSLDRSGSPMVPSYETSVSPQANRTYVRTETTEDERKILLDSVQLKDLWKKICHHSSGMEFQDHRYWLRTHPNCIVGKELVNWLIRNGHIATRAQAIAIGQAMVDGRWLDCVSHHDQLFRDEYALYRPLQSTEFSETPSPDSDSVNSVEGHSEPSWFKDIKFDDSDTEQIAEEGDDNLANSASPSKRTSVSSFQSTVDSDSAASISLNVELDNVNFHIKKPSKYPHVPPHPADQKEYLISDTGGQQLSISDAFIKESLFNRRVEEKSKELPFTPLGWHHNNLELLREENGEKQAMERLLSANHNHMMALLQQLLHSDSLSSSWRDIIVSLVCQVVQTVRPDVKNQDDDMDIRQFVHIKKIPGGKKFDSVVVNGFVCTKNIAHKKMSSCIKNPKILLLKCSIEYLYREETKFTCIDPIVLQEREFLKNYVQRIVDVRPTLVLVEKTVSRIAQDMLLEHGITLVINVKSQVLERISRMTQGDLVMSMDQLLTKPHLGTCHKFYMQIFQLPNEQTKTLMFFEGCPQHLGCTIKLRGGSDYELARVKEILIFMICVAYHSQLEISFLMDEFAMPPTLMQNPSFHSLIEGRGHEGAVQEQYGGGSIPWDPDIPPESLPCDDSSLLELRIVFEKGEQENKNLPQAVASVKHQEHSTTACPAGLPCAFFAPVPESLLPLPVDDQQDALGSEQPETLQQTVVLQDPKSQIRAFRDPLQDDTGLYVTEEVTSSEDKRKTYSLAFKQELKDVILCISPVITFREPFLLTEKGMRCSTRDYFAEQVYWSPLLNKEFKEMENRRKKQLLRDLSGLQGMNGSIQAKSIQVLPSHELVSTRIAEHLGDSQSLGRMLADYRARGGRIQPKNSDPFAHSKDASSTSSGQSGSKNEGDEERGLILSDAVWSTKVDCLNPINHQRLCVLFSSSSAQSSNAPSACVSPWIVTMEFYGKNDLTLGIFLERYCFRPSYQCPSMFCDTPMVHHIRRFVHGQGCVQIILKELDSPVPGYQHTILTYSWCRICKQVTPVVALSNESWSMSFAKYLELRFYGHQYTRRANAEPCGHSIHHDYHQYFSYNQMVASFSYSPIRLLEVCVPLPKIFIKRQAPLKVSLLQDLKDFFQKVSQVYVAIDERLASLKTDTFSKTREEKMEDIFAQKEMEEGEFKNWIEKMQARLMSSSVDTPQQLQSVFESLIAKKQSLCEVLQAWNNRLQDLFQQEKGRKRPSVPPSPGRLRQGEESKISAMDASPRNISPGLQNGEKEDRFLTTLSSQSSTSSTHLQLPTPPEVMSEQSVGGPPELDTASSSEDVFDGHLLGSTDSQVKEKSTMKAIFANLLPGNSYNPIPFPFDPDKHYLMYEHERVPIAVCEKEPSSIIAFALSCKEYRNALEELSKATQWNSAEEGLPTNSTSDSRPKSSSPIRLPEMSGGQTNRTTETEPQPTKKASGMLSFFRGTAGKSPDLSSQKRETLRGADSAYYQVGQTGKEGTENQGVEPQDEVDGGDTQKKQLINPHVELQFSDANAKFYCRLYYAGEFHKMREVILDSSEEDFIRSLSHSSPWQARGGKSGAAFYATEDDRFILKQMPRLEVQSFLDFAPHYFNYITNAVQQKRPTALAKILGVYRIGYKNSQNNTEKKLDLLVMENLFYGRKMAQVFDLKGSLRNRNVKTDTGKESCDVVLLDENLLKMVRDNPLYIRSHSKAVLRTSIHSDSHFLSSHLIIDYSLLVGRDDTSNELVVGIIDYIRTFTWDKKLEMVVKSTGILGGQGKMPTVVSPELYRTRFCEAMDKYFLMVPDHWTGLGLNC

Row | IC50 [µM] | Compound
1 | 0.1 to 1 | CN(C)C(=O)c1c(Nc2ccncc2)nc(N2CCOCC2)nc1-c1cccc(-c2ccn(C)n2)c1 [Compound 66]
2 | 1 to 10 | COc1c(Nc2cccnc2)nc(N2CCOCC2)nc1-c1cccc(C#N)c1 [Compound 23, 3-(5-methoxy-2-morpholino-6-(pyridin-3-ylamino)pyrimidin-4-yl)benzonitrile]
3 | 0.1 to 1 | COc1c(Nc2cccnc2)nc(N2CCOCC2)nc1-c1cccc(-c2ccn(C)n2)c1 [Compound 20, 5-methoxy-6-(3-(1-methyl-1H-pyrazol-3-yl)phenyl)-2-morpholino-N-(pyridin-3-yl)pyrimidin-4-amine]
4 | 1 to 10 | Cn1ccc(-c2cccc(-c3nc(N4CCOCC4)nc(Nc4cccnc4)c3P(C)(C)=O)c2)n1 [Compound 45, dimethyl(4-(3-(1-methyl-1H-pyrazol-3-yl)phenyl)-2-morpholino-6-(pyridin-3-ylamino)pyrimidin-6-yl)phosphine oxide]
5 | 1 to 10 | COc1c(Nc2cccnc2)nc(N2CCOCC2)nc1-c1cccc(N2CCCC2=O)c1 [Compound 29, 1-(3-(5-methoxy-2-morpholino-6-(pyridin-3-ylamino)pyrimidin-4-yl)phenyl)pyrrolidin-2-one]
6 | 1 to 10 | COc1c(Nc2cccnc2)nc(N2CCOCC2)nc1-c1cccc(N2CCC(O)CC2)c1 [Compound 55, 1-(3-(5-methoxy-2-morpholino-6-(pyridin-3-ylamino)pyrimidin-4-yl)phenyl)piperidin-4-ol]
7 | 0.1 to 1 | Clc1c(Nc2ccncc2)nc(N2CCOCC2)nc1-c1cccc(-n2cccn2)c1 [Compound 50, 6-(3-(1H-pyrazol-1-yl)phenyl)-5-chloro-2-morpholino-N-(pyridin-4-yl)pyrimidin-4-amine]
8 | 0.01 to 0.1 | COc1c(Nc2ccncc2)nc(N2CCOCC2)nc1-c1cccc(-c2ncco2)c1 [Compound 54, 5-methoxy-2-morpholino-6-(3-(oxazol-2-yl)phenyl)-N-(pyridin-4-yl)pyrimidin-4-amine]
9 | 0.01 to 0.1 | COc1c(Nc2ccncc2)nc(N2CCOCC2)nc1-c1cccc(-c2ccn(C)n2)c1 [Compound 3, 5-methoxy-6-(3-(1-methyl-1H-pyrazol-3-yl)phenyl)-2-morpholino-N-(pyridin-4-yl)pyrimidin-4-amine]
10 | 1 to 10 | COc1c(OCCc2ccccn2)nc(-c2cccc(-c3ccn(C)n3)c2)nc1N1CCOCC1 [Compound 4]
11 | 0.1 to 1 | COc1c(Nc2ccncc2)nc(N2CCOCC2)nc1-c1cccc(N2CCC(O)CC2)c1 [Compound 48, 1-(3-(5-methoxy-2-morpholino-6-(pyridin-4-ylamino)pyrimidin-4-yl)phenyl)piperidin-4-ol]
12 | 0.01 to 0.1 | Cn1ccc(-c2ccc3[nH]c(=O)c4c(Nc5ccncc5)nc(N5CCOCC5)nc4c3c2)n1 [Compound 72, 9-(1-methylpyrazol-3-yl)-2-morpholino-4-(4-pyridylamino)-6H-pyrimido[5,4-c]quinolin-one]
13 | 0.1 to 1 | COc1ccc(-c2nc(N3CCOCC3)nc(Nc3ccncc3)c2OC)nc1OC [Compound 51, 6-(5,6-dimethoxypyridin-2-yl)-5-methoxy-2-morpholino-N-(pyridin-4-yl)pyrimidin-4-amine]
14 | 1 to 10 | CN(C)C(=O)c1c(Nc2cccnc2)nc(N2CCOCC2)nc1-c1cccc(-n2cccn2)c1 [Compound 69]
15 | 1 to 10 | COc1cc(-c2nc(N3CCOCC3)nc(Nc3cccnc3)c2OC)cnc1OC [Compound 18, 6-(5,6-dimethoxypyridin-3-yl)-5-methoxy-2-morpholino-N-(pyridin-3-yl)pyrimidin-4-amine]
16 | 1 to 10 | COc1c(-c2cccc(-c3ccn(C)n3)c2)nc(OCCc2ccccn2)nc1N1CCOCC1 [Compound 5, 4-(5-methoxy-6-(3-(1-methyl-H-pyrazol-3-yl)phenyl)-2-(2-(pyridin-2-yl)ethoxy)pyrimidin-4-yl)morpholine]

Row | IC50 [µM] | Compound
17 | 1 to 10 | COc1c(-c2cccc(-n3cccn3)c2)nc(N2CCN(C)C(=O)C2)nc1N1CCOCC1 [Compound 37, 4-[5-methoxy-4-morpholino-6-(3-pyrazol-1-ylphenyl)pyrimidin-2-yl]-1-methyl-piperazin-2-one]
18 | 1 to 10 | O=c1[nH]c2ccc(-n3cccn3)cc2c2nc(N3CCOCC3)nc(Nc3ccncc3)c12 [Compound 64, 2-morpholino-9-pyrazol-1-yl-4-(4-pyridylamino)-6H-pyrimido[5,4-c]quinolin-5-one]
19 | 1 to 10 | COc1c(NCc2cccnn2)nc(N2CCOCC2)nc1-c1cccc(-c2ccn(C)n2)c1 [Compound 31, 5-methoxy-6-(3-(1-methyl-1H-pyrazol-3-yl)phenyl)-2-morpholino-N-(pyridazin-3-ylmethyl)pyrimidin-4-amine]
20 | 1 to 10 | COc1c(NCc2cccnc2)nc(-c2cccc(-c3ccn(C)n3)c2)nc1-c1ccncc1 [Compound 63, 5-methoxy-2-(3-(1-methyl-1H-pyrazol-3-yl)phenyl)-N-(pyridin-3-ylmethyl)-6-(pyridin-4-yl)pyrimidin-4-amine]
21 | 1 to 10 | COc1c(Nc2ccncc2)nc(N2CCOC[C@H]2CO)nc1-c1cccc(-c2ccn(C)n2)c1 [Compound 43]
22 | 0.01 to 0.1 | COc1c(Nc2ccncc2)nc(-c2ccncc2)nc1-c1cccc(-c2ccn(C)n2)c1 [Compound 53, 5-methoxy-6-(3-(1-methyl-1H-pyrazol-3-yl)phenyl)-N, 2-di(pyridin-4-yl)pyrimidin-4-amine]
23 | 0.1 to 1 | COc1c(Nc2cccnc2)nc(N2CCOCC2)nc1-c1ccnc(-c2ccn(C)n2)c1 [Compound 25, 5-methoxy-6-(2-(1-methyl-1H-pyrazol-3-yl)pyridin-4-yl)-2-morpholino-N-(pyridin-3-yl)pyrimidin-4-amine]
24 | 1 to 10 | COc1c(-c2cccc(-c3ccn(C)n3)c2)nc(N2CCOCC2)nc1N1CCN(C)C(=O)C1 [Compound 60, 4-(5-methoxy-6-(3-(1-methyl-1H-pyrazol-3-yl)phenyl)-2-morpholinopyrimidin-4-yl)-1-methylpiperazin-2-one]
25 | 1 to 10 | Cn1ccc(-c2cccc(-c3nc(N4CCOCC4)nc(Nc4cc[n+](C)cc4)c3-c3ncco3)c2)n1 [Compound 73]
26 | 1 to 10 | COc1c(Nc2cccnc2)nc(N2CCOCC2)nc1-c1cccc(-c2cccnn2)c1 [Compound 21]
27 | 0.01 to 0.1 | COc1c(Nc2cccnc2)nc(-c2ccncc2)nc1-c1cccc(-c2ccn(C)n2)c1 [Compound 34, 5-methoxy-6-(3-(1-methyl-H-pyrazol-3-yl)phenyl)-N-(pyridin-3-yl)-2-(pyridin-4-yl)pyrimidin-4-amine]
28 | 1 to 10 | OCc1c(Nc2cccnc2)nc(N2CCOCC2)nc1-c1cccc(-n2cccn2)c1 [Compound 70, [2-morpholino-4-(3-pyrazol-1-ylphenyl)-6-(3-pyridylamino)pyrimidin-6-yl]methanol]
29 | 1 to 10 | CN(C)C(=O)c1c(Nc2ccncc2)nc(N2CCOCC2)nc1-c1cccc(C#N)c1 [Compound 67]
30 | 1 to 10 | COc1ccc(-c2nc(N3CCOCC3)nc(Nc3cccnc3)c2OC)cc1OC [Compound 22]
31 | 0.1 to 1 | COc1c(Nc2ccncc2)nc(N2CCOCC2)nc1-c1ccnc(-c2ccn(C)n2)n1 [Compound 56, 5-methoxy-2′-(I-methyl-1H-pyrazol-3-yl)-2-morpholino-N-(pyridin-4-yl)-4,4′-bipyrimidin-4-amine]

Row | Compound | IC50 [µM]
32 | Cn1ccc(-c2cccc(-c3nc(N4CCOCC4)nc(Nc4ccncc4)c3C(=O)N3CCC3)c2)n1 [Compound 68] | 0.01 to 0.1
33 | COc1c(Nc2ccncc2)nc(N2CCOCC2)nc1-c1cccc(-n2ccc(C)n2)c1 [Compound 9] | 0.01 to 0.1
